Reference: patent US6150379A, “Compounds and compositions as anticoagulants” (Axys Pharmaceuticals, Inc., priority 1998, dated 2000)

Target: human Factor Xa (Homo sapiens, UniProt P00742)
Test: In Vitro Enzyme Inhibitor Assay (Factor Xa inhibitory activity)
Format: biochemical
Details: human Factor Xa 0.5-5 nM, pH 8, 150 μM zinc chloride, 1 hour preincubation at room temperature, substrate MesOC-Norleu-Gly-Arg-pNA; read-out: Apparent inhibition constants (Ki)
Procedure: The following represents an assay for determining the Factor Xa inhibitory activity of compounds of Formula I.
Apparent inhibition constants (Ki) were calculated from the enzyme progress curves using standard mathematical models.

Sequence of human Factor Xa (P00742 235-488 limits assumed): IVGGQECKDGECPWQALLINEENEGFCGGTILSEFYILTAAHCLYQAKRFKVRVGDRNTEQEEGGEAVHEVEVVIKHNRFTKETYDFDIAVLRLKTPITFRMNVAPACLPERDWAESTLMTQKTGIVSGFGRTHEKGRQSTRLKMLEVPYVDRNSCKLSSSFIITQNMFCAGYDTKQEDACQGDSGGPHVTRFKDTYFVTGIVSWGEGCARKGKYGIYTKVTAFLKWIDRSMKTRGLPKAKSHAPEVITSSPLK
Sequence of human Factor Xa (P00742 41-179 partner limits assumed): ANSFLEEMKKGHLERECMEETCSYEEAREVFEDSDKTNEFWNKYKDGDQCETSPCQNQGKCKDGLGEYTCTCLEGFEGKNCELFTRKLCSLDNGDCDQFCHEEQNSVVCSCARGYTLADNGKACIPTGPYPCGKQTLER

Row | Compound | Ki [nM]
1 | 6-(5-amidino-1H-benzimidazol-2-yl)-N-(2-morpholin-4-ylethyl)pyridine-5-carboxamide [Compound 69] | 40
2 | 6-(5-amidino-1H-benzimidazol-2-yl)-N-[2-(3,4-dichlorophenyl)ethyl]pyridine- 5-carboxamide [Compound 88] | 6
3 | 6-(5-amidino-1H-benzimidazol-2-yl)-N-[2-(4-methylphenyl)ethyl]pyridine-5-carboxamide [Compound 86] | 8
4 | CCCCc1ccc(-c2nc3cc(C(=N)N)ccc3[nH]2)nc1 [Compound 1] | 3
5 | Cc1c(-c2nc3cc(C(=N)N)ccc3[nH]2)ncn1Cc1ccccc1 [Compound 16, 2-(5-methyl-1-benzyl-1H-imidazol-4-yl)-1H-benzimidazole-5-carboxamidine] | 8
6 | N=C(N)c1ccc2[nH]c(-c3nccn3Cc3ccccc3)nc2c1 [Compound 17, 2-(1-benzyl-1H-imidazol-2-yl)-1H-benzimidazole-5-carboxamidine] | 4
7 | CCCn1cnc(-c2nc3cc(C(=N)N)ccc3[nH]2)c1C [Compound 20, 2-(5-methyl-1-propyl-1H-imidazol-4-yl)-1H-benzimidazole-5-carboxamidine] | 7
8 | CCCCn1ccnc1-c1nc2cc(C(=N)N)ccc2[nH]1 [Compound 27, 2-(1-butyl-1H-imidazol-2-yl)-1H-benzimidazole-5-carboxamidine] | 5
9 | CCOC(=O)Cn1ccnc1-c1nc2cc(C(=N)N)ccc2[nH]1 [Compound 33, ethyl 2-(5-amidino-1H-benzimidazol-2-yl)imidazol-1-ylacetate] | 5
10 | Cc1c(-c2nc3cc(C(=N)N)ccc3[nH]2)ncn1CCCN1C(=O)c2ccccc2C1=O [Compound 36, 2-{1-[3-(1,3-dioxo-1,3-dihydroisoindol-2-yl)propyl]-5-methyl-1H-imidazol-4-yl}-1H-benzimidazole-5-carboxamidine] | 5
11 | N=C(N)c1ccc2[nH]c(-c3nccn3CCCCN3C(=O)c4ccccc4C3=O)nc2c1 [Compound 39, 2-{1-[4-(1,3-dioxo-1,3-dihydroisoindol-2-yl)butyl]-1H-imidazol-2-yl}-1H-benzimidazole-5-carboxamidine] | 6
12 | COc1ccc(CCNC(=O)c2ccnc(-c3nc4cc(C(=N)N)ccc4[nH]3)c2)cc1 [Compound 50, 6-(5-amidino-1H-benzimidazol-2-yl)-N-[2-(4-methoxyphenyl)ethyl]pyridine-4-carboxamide] | 10
13 | COc1ccc(CCNC(=O)c2ccc(-c3nc4cc(C(=N)N)ccc4[nH]3)nc2)cc1Br [Compound 57] | 2
14 | N=C(N)c1ccc2[nH]c(-c3nccn3CC(=O)NCCc3ccc(Cl)cc3)nc2c1 [Compound 90, 2-(5-amidino-1H-benzimidazol-2-yl)imidazol-1-yl-N-[2-(4-chlorophenyl)ethyl]acetamide] | 3
15 | N=C(N)c1ccc2[nH]c(-c3nccn3CC(=O)NCCc3ccc(O)cc3)nc2c1 [Compound 95, 2-(5-amidino-1H-benzimidazol-2-yl)imidazol-1-yl-N-[2-(4-hydroxyphenyl)ethyl]acetamide] | 6
16 | N=C(N)c1ccc2[nH]c(-c3nccn3CC(=O)NCCc3cccc4ccccc34)nc2c1 [Compound 96, 2-(5-amidino-1H-benzimidazol-2-yl)imidazol-1-yl-N-(2-naphth-1-ylethyl)acetamide] | 30
17 | N=C(N)c1ccc2[nH]c(-c3nccn3CCCC(=O)N3CCOCC3)nc2c1 [Compound 98, 2-[1-(3-morpholin-4-ylcarbonylpropyl)-1H-imidazol-2-yl]-1H-benzimidazole-5-carboxamidine] | 2
18 | N=C(N)c1ccc2[nH]c(-c3nccn3CCCC(=O)NCCc3ccc(Cl)cc3)nc2c1 [Compound 100, 4-[2-(5-amidino-1H-benzimidazol-2-yl)imidazol-1-yl]-N-[2-(4-chlorophenyl)ethyl]butyramide] | 6
